Experimental data published in patent US7713994B2 (Wyeth LLC, priority 2005, dated 2010).

Experiments:
[1] = tested on: LoVo; assay: Cytotoxicity assay (SRB), LoVo; type: cell-based; details: Homo sapiens, LoVo, 72 h, LoVo cells, SRB, three days; read-out: In Vitro Cellular Activity IC50 LOVO
In short: (§1)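 Cells seeded overnight at 37 °C, 7% CO2 (BT474 12000, HCT-116 4000, LoVo and MCF-7 6000 cells/well) in RPMI 1640 with 5% FBS, then exposed to compound dilutions for 3 days (BT474 6 days). Survival versus untreated controls by TCA fixation and SRB staining, absorbance 540 nm.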

[2] = tested on: HCT-116; assay: Cytotoxicity assay (SRB), HCT-116; type: cell-based; details: Homo sapiens, HCT-116, 72 h, HCT116 cells, SRB, three days; read-out: In Vitro Cellular Activity IC50 HCT116
In short: as §1

[3] = tested on: MCF-7; assay: Cytotoxicity assay (SRB), MCF-7; type: cell-based; details: Homo sapiens, MCF7, 72 h, MCF-7 cells, SRB, three days; read-out: In Vitro Cellular Activity IC50 MCF-7
In short: as §1

[4] = target: T1, cyclin D1/cdk 4 enzyme (Homo sapiens, UniProt P11802); assay: CDK4 ELISA kinase assay (phospho-Rb ser 795 detection); type: biochemical; details: In Vitro Enzyme Assays, 200 μM ATP, read-out: CDK4 IC50
T1 construct: made in house; host or cells: Sf9 insect cells, recombinant baculovirus
T1 sequence (P11802 whole entry, species assumed): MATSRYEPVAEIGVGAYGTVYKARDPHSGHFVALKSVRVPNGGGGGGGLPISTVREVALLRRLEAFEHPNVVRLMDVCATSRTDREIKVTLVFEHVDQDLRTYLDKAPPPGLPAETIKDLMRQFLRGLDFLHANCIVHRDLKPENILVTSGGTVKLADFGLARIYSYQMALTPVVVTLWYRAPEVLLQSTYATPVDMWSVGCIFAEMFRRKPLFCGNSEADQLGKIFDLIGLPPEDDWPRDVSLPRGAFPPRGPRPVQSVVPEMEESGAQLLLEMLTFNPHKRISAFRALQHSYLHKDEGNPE
T1 sequence (P24385 whole entry partner, species assumed): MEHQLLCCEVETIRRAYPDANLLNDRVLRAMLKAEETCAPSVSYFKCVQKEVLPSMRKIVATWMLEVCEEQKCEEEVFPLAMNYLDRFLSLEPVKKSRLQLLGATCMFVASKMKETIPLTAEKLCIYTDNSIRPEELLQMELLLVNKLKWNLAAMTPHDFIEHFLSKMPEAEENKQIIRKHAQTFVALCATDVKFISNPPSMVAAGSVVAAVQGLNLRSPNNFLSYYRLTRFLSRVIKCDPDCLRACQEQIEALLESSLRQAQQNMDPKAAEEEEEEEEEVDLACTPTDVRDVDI
In short: (§2)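 GST-Rb C-terminal fragment coated on wells; kinase reaction: 200 μM ATP, 0.5 mg/ml BSA, HEPES pH 7.5, 10 mM MgCl2, baculovirus/Sf9 cyclin-CDK, 30° C, 1 h. Readout anti-phospho-Rb Ser795, HRP, TMB, A450. Test compound 10 ug/ml final.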

[5] = tested on: BT474; assay: Cytotoxicity assay (SRB), BT474; type: cell-based; details: Homo sapiens, BT-474, 144 h, BT474 cells, SRB, 6 days; read-out: In Vitro Cellular Activity IC50 BT474
In short: as §1

[6] = target: T2, cyclin B/CDK1 enzyme (Homo sapiens, UniProt P06493); assay: CDK1 ELISA kinase assay (phospho-Rb ser 795 detection); type: biochemical; details: In Vitro Enzyme Assays, read-out: CDK1 IC50
T2 construct: purchased New England BioLabs; host or cells: Sf9 insect cells, recombinant baculovirus
T2 sequence (P06493 whole entry): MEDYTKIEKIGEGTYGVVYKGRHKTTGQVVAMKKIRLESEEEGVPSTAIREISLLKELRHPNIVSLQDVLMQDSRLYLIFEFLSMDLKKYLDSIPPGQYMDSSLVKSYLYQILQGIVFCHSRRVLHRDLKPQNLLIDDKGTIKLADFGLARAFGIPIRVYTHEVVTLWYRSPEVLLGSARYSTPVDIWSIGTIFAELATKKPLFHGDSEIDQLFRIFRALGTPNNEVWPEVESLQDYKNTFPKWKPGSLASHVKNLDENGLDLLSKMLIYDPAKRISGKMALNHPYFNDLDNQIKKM
T2 sequence (P14635 whole entry partner): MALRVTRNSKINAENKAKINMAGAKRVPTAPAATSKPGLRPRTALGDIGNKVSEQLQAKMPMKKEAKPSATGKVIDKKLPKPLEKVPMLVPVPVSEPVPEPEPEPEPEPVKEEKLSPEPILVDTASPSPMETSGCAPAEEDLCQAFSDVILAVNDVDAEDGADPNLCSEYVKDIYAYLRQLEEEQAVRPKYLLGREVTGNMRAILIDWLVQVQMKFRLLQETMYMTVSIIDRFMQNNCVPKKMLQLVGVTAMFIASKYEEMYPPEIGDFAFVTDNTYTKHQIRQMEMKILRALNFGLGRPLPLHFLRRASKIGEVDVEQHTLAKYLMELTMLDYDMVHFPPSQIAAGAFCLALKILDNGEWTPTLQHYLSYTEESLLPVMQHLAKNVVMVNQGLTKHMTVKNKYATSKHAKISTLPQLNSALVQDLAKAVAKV
In short: as §2

| Compound | melting point | IC50 [4] | IC50 [6] | IC50 [1] | IC50 [2] | IC50 [3] | IC50 [5] |
| --- | --- | --- | --- | --- | --- | --- | --- |
| COc1ccc2c(c1)C(=CNc1ccc(CN3CCCCC3)cc1)C(=O)NC2=O [Example 91, 6-Methoxy-4-[(4-piperidin-1-ylmethyl-phenylamino)-methylene]-4H-isoquinoline-1,3-dione] | 272 to 275 °C (dec.) | 2 µM | > 50 µM | 37 µM | 27 µM | 16 µM | 40 µM |
| COc1ccc(CN/C=C2\C(=O)NC(=O)c3ccc(-c4ccoc4)cc32)cc1O [Example 92] | 254 to 255 °C | < 0.005 µM | 2.5 µM | 3.2 µM | 2.5 µM | 3.8 µM | 2 µM |
| O=C1NC(=O)c2ccc(-c3cccnc3)cc2/C1=C/Nc1ccc(CN2CCCCC2)cc1 [Example 102] | 247 to 248 °C | 0.13 µM | > 50 µM | 43.3 µM | 11.5 µM | > 50 µM | > 50 µM |
| CN1CCN(c2ccc3c(c2)/C(=C/Nc2ccc(CN4CCCCC4)cc2)C(=O)NC3=O)CC1 [Example 123] | 192 to 193 °C | 34.7 µM | > 50 µM | 4.4 µM | 3.4 µM | 7.2 µM | 9.4 µM |

The next lines start with results.

| melting point | IC50 [4] | IC50 [6] | Compound | IC50 [1] | IC50 [2] | IC50 [3] | IC50 [5] |
| --- | --- | --- | --- | --- | --- | --- | --- |
| 266 to 267 °C (dec.) | 21.2 µM | > 50 µM | CN(C)C(=O)c1ccc2c(c1)/C(=C/Nc1ccc(CN3CCCCC3)cc1)C(=O)NC2=O [Example 66, (4Z)-N,N-Dimethyl-1,3-dioxo-4-({[4-(piperidinylmethyl)phenyl]amino}methylene)-1,2,3,4-tetrahydroisoquinoline-6-carboxamide] | 4.2 µM | 3.4 µM | 4.3 µM | 3.1 µM |
| 200 to 201 °C | 0.17 µM | > 50 µM | COc1ccc(CN/C=C2\C(=O)NC(=O)c3ccc(F)cc32)cc1O [Example 68] | 19 µM | 15 µM | > 50 µM | 14 µM |
| 235 to 236 °C | 0.027 µM | > 50 µM | O=C1NC(=O)c2ccc(-c3cccc(O)c3)cc2/C1=C/Nc1ccc(CN2CCCCC2)cc1 [Example 96] | 1.8 µM | 1.3 µM | 2 µM | 3.4 µM |
| 216 to 217 °C | 0.92 µM | > 50 µM | O=C1NC(=O)c2ccc(N3CCOCC3)cc2/C1=C/Nc1ccc(CN2CCCCC2)cc1 [Example 120, (4Z)-6-Morpholin-4-yl-4-({[4-(piperidin-1-ylmethyl)phenyl]amino}methylene)isoquinoline-1,3(2H,4H)-dione] | 7.7 µM | 4.3 µM | 21 µM | 8 µM |
| 252 to 253 °C | 0.02 µM | > 50 µM | CC(=O)Nc1ccc(CN/C=C2\C(=O)NC(=O)c3ccc(Br)cc32)cc1O [Example 142, N-[4-({[(Z)-(6-Bromo-1,3-dioxo-2,3-dihydroisoquinolin-4(1H)-′ylidene)methyl]amino}methyl)-2-hydroxyphenyl]acetamide] | 2 µM | 1.2 µM | 31.1 µM | 0.66 µM |
| > 300 °C | 17.3 µM | 25.3 µM | CC1CN(c2ccc(N/C=C3\C(=O)NC(=O)c4ccc([N+](=O)[O-])cc43)cc2)CC(C)N1 (stereo not shown) [Example 235, (4Z)-4-({[4-(3,5-Dimethylpiperazin-1-yl)phenyl]amino}methylene)-6-nitroisoquinoline-1,3(2H,4H)-dione] | 3.5 µM | 1.4 µM | 3.3 µM | 3 µM |
